How the values were obtained:
PfA-M1 = biological target: T1, PfA-M1 (Plasmodium falciparum, UniProt O96935); experiment: Dose-response aminopeptidase assay, Ki via Dixon plots, PfA-M1; type: biochemical; conditions: Dixon plot; substrate 20 and 40 μM
T1 construct: made in house; host or cells: Escherichia coli
T1 sequence (O96935 1-1085): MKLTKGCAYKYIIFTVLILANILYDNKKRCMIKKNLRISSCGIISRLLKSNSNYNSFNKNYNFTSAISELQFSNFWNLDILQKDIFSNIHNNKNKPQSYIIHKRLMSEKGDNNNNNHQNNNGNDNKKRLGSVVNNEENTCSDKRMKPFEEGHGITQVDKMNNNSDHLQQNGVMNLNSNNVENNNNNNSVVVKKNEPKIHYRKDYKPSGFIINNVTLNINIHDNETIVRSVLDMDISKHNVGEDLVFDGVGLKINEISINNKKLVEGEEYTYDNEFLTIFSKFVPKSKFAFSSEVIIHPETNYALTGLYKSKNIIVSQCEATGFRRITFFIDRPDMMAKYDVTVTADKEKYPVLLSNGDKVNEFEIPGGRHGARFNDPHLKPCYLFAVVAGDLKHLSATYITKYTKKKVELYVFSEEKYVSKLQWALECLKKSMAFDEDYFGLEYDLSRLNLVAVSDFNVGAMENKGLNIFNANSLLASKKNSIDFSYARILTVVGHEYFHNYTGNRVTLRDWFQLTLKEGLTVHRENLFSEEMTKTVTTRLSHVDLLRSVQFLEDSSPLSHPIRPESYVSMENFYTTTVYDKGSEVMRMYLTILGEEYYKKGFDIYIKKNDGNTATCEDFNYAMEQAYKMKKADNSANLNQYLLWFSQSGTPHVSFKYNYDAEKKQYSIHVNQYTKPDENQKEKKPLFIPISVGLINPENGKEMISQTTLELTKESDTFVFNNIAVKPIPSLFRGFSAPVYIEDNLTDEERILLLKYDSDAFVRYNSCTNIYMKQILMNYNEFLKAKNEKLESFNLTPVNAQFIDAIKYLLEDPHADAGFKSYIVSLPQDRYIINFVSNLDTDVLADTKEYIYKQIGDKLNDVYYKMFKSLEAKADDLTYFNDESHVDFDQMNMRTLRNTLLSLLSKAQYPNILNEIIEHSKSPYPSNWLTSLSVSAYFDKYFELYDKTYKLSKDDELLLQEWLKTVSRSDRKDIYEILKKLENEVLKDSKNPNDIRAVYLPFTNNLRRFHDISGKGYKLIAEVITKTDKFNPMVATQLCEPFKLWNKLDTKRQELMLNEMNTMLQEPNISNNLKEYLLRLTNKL
Excerpt: (§1) The expression and purification of PfA-M1 and PfA-M17 in Escherichia coli employed a two-step purification process of Ni-NTA-agarose column, followed by size exclusion chromatography on a Superdex 200 16/60 using an AKTAxpress high throughput chromatography system (http://proteinexpress.med.monash.edu.au/index.htm), as previously described. Compounds were purchased from Ambinter (France). Purity (90% or higher) of these compounds was confirmed by vendors. Aminopeptidase activity and K i values for both enzymes were determined as already described.
(§2) The top 12 hits identified in the virtual screen were evaluated for their ability to inhibit both PfA-M1 and PfA-M17 in vitro. We initially tested the total aminopeptidase activity (as reported by the fluorigenic substrate L-leucyl-7-amido-4-methylcoumarin) in the presence of 1 mM compound (Fig 3). In this screen, the “no compound” control was considered 100% activity and bestatin was included as an indicator/control for inhibition. From the results obtained, only compounds 4 (ZINC ID: 25108749) and 12 (ZINC ID: 4090432) were able to inhibit the activity of the enzymes to > 50%. […] The two inhibitory compounds were further analyzed to identify their effects on the individual aminopeptidases. To do this, we performed dose-response assays for each inhibitor with each enzyme, and then determined a K i via Dixon plots (Fig 4). […] Compound 4 was a weaker inhibitor of both enzymes with K i’s in the micromolar range (K i = 30.0 μM for PfA-M1 and 0.7 μM for PfA-M17; Fig 4).
(§3) Fig 4 Dixon plots of 1/V (y axis) versus inhibitor concentration (x axis) for PfA-M1 (top panel) and PfA-M17 (bottom panel). For PfA-M1, substrate concentrations were 20 μM (blue) and 40 μM (red); inhibitor concentration in μM. For PfA-M17, substrate concentrations were 5 μM (magenta) and 10 μM (green); inhibitor concentration in μM or nM as indicated. The point of intersection (-K i) is indicated as a dotted line. (A) PfA-M1 and compound 4. (B) PfA-M1 and compound 12. (C) PfA-M17 and compound 4. (D) PfA-M17 and compound 12

PfA-M17 = biological target: T2, PfA-M17 (Plasmodium falciparum, UniProt Q8IL11); experiment: Dose-response aminopeptidase assay, Ki via Dixon plots, PfA-M17; type: biochemical; conditions: Dixon plot; substrate 5 and 10 μM
T2 construct: made in house; host or cells: Escherichia coli
T2 sequence (Q8IL11 84-605 limits assumed): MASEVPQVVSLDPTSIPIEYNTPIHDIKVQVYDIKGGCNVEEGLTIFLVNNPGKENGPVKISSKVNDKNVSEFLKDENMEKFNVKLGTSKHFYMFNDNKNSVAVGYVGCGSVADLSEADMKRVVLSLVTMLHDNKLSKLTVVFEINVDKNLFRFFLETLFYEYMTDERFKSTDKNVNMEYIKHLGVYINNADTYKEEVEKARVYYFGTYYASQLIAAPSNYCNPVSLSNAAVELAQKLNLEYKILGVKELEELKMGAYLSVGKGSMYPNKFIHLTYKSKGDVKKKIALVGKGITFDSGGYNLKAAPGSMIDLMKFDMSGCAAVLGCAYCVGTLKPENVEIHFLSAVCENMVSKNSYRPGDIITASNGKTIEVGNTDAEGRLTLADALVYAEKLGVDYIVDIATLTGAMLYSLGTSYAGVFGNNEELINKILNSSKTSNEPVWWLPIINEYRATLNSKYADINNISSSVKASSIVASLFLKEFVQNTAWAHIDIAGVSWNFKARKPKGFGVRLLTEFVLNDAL
Excerpt: as §1, §2, §3

[1] = system: PfA-M1 and PfA-M17 (total aminopeptidase activity); experiment: Total aminopeptidase activity in the presence of 1 mM compound (fluorigenic substrate L-leucyl-7-amido-4-methylcoumarin); type: biochemical, Plasmodium falciparum; conditions: no compound control = 100% activity
Excerpt: as §1
The top 12 hits identified in the virtual screen were evaluated for their ability to inhibit both PfA-M1 and PfA-M17 in vitro. We initially tested the total aminopeptidase activity (as reported by the fluorigenic substrate L-leucyl-7-amido-4-methylcoumarin) in the presence of 1 mM compound (Fig 3). In this screen, the “no compound” control was considered 100% activity and bestatin was included as an indicator/control for inhibition. From the results obtained, only compounds 4 (ZINC ID: 25108749) and 12 (ZINC ID: 4090432) were able to inhibit the activity of the enzymes to > 50%. […] The two inhibitory compounds were further analyzed to identify their effects on the individual aminopeptidases. To do this, we performed dose-response assays for each inhibitor with each enzyme, and then determined a K i via Dixon plots (Fig 4). […]

| Compound | Ki PfA-M1 (PfA-M1) | Ki PfA-M17 (PfA-M17) | Ki (PfA-M1) | Ki (PfA-M17) | inhibition of total aminopeptidase activity [1] |
| --- | --- | --- | --- | --- | --- |
| CP(=O)(O)CCCCC(N)C(=O)O (stereo not shown) [Compound 1] | n.i. | n.i. |  |  |  |
| NCP(=O)(O)CC(CCCC(=O)O)C(=O)O (stereo not shown) [Compound 3] | n.i. | n.i. |  |  |  |
| CC(C)CC(CP(=O)(O)C(N)c1ccccc1)C(=O)O (stereo not shown) [Compound 12] |  |  | 2300 nM | 17 nM | 98% |
| CC(CP(=O)(O)C(N)c1ccccc1)C(=O)O (stereo not shown) [Compound 4, 3-{[amino(phenyl)methyl](hydroxy)phosphoryl}-methyl propanoic acid] |  |  | 30000 nM | 700 nM | 95% |
| CCCN(CCC)CP(=O)(O)CCC(=O)O [Compound 7] | n.i. | n.i. |  |  |  |
| O=C(O)C(Cc1ccco1)P(=O)(O)CN1CCCCC1 (stereo not shown) [Compound 6] | n.i. | n.i. |  |  |  |
| O=C(O)CCP(=O)(O)CN1CCCCC1 [Compound 8] | n.i. | n.i. |  |  |  |
| CC(CC(N)C(=O)O)C(=O)O (stereo not shown) [Compound 11] | n.i. | n.i. |  |  |  |
| NC(=O)NC(CC(=O)O)C(=O)O (stereo not shown) [Compound 10] | n.i. | n.i. |  |  |  |
| O=C(O)C(CC1CCCO1)P(=O)(O)CN1CCCC1=O (stereo not shown) [Compound 9] | n.i. | n.i. |  |  |  |

Reference: PMC4583420, “Identification and Validation of a Potent Dual Inhibitor of the P. falciparum M1 and M17 Aminopeptidases Using Virtual Screening” (PLoS ONE, 2015)
